Source: ChEMBL document CHEMBL1126362, “Episulfide inhibitors of lipoxygenase” (Bioorg Med Chem Lett, 1992)
pKi: −log10 of the molar value.

Biological target: T1, Seed linoleate 13S-lipoxygenase-1 (Glycine max, UniProt P08170)
T1 sequence (P08170 whole entry): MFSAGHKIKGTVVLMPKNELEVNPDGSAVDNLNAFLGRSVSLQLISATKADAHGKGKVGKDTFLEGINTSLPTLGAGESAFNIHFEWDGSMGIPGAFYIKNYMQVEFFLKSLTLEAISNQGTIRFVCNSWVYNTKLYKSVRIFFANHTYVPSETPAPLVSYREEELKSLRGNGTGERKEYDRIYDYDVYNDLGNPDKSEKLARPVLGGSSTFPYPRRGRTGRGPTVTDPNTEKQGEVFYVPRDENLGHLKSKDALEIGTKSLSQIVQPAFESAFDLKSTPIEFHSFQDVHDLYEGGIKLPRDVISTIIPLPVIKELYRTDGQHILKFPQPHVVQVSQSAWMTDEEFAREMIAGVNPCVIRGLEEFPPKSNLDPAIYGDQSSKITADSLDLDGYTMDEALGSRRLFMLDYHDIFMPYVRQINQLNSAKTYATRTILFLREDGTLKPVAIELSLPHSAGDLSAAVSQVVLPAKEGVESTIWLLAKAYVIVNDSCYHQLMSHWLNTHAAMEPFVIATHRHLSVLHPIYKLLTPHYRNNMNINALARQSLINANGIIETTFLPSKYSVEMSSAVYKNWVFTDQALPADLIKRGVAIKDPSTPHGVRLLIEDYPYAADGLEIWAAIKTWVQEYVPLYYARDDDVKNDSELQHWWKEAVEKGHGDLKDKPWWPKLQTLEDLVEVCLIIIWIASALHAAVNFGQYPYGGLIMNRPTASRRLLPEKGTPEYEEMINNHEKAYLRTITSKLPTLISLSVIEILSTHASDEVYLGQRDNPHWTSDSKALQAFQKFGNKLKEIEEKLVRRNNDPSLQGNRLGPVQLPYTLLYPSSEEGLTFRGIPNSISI
Assay: Inhibitory activity against Soybean type 1 Lipoxygenase (SBLO) was determined

SMILES	pKi
CCCCCCCCC1OC1CCCCCCCC(=O)O (configuration not stated)	< 4.00
CCCCCC1OC1CCCCCCCCCCC(=O)O (configuration not stated)	< 4.00
CCCCCC1SC1C/C=C/CCCCCCCC(=O)O (configuration not stated)	5.70
CCCCC/C=C/CC1OC1CCCCCCCC(=O)O (configuration not stated)	< 4.00
CCCCCCCCC1SC1CCCCCCCC(=O)O (configuration not stated)	< 4.00
CCCCCC1SC1CCCCCCCCCCC(=O)O (configuration not stated)	5.40
CCCCC/C=C/CC1SC1CCCCCCCC(=O)O (configuration not stated)	< 4.00
